Assay results as given in ChEMBL document CHEMBL1141582, “Multi-target-directed coumarin derivatives: hAChE and BACE1 inhibitors as potential anti-Alzheimer compounds” (Bioorg Med Chem Lett, 2008).

Experiments:
Beta-secretase 1 = Beta-secretase 1 (Homo sapiens, UniProt P56817); assay: Inhibition of human recombinant BACE1 by spectrofluorimetric method
Acetylcholinesterase = Acetylcholinesterase (Homo sapiens, UniProt P22303); assay: Inhibition of human recombinant AChE by Ellman method
Chain of Acetylcholinesterase (P22303 whole entry): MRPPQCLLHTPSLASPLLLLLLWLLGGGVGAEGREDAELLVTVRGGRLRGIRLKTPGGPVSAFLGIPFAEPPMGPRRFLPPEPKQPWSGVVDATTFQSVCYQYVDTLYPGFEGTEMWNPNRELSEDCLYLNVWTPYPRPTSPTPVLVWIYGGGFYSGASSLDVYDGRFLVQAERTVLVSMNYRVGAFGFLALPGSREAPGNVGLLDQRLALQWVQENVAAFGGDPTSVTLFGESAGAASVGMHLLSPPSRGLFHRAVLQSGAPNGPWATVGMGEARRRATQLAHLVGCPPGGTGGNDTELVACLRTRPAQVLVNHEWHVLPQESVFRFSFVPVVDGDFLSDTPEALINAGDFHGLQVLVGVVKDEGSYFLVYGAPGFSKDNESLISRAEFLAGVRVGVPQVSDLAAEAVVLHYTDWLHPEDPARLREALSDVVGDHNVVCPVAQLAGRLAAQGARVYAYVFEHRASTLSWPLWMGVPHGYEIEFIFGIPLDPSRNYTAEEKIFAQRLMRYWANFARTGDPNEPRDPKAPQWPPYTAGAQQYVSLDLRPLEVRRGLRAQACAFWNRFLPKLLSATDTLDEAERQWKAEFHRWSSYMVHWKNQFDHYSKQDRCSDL

Chain of Beta-secretase 1 (P56817 whole entry): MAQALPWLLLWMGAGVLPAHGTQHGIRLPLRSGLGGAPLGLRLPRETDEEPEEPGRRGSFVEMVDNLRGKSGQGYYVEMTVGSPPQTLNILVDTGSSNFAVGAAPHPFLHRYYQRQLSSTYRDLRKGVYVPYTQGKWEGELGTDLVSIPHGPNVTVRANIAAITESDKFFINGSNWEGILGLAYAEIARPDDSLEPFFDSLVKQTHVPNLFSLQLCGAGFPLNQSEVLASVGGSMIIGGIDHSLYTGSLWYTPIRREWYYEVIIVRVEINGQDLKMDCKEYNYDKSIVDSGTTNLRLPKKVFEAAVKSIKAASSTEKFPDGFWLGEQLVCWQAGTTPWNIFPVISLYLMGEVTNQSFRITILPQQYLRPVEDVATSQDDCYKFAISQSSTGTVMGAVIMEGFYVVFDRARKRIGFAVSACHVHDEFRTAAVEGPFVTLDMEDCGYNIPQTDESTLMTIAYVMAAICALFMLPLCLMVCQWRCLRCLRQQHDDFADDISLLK

Compound `CCN(Cc1ccccc1)Cc1ccc(-c2cc3cc(OCCNC(=O)/C=C/c4cc(F)cc(F)c4)ccc3oc2=O)cc1` has an IC50 (Beta-secretase 1) of 99 nM and an IC50 (Acetylcholinesterase) of 7160 nM.

For `CCN(Cc1ccccc1)Cc1ccc(-c2cc3ccc(OCCNC(=O)CCc4ccc(F)c(F)c4)cc3oc2=O)cc1`, the IC50 (Beta-secretase 1) was 114 nM and the IC50 (Acetylcholinesterase) was 327 nM.

Compound `CCN(Cc1ccccc1)Cc1ccc(-c2cc3cc(OCCNC(=O)Cc4cc(F)cc(F)c4)ccc3oc2=O)cc1` has an IC50 (Beta-secretase 1) of 149 nM and an IC50 (Acetylcholinesterase) of 551 nM.

`CCN(Cc1ccccc1)Cc1ccc(-c2cc3cc(OCCNC(=O)CCc4ccc(F)c(F)c4)ccc3oc2=O)cc1` showed an IC50 (Beta-secretase 1) of 116 nM and an IC50 (Acetylcholinesterase) of 2770 nM.

Compound `CCN(Cc1ccccc1)Cc1ccc(-c2cc3ccc(OCCNC(=O)/C=C/c4ccc(Cl)c(Cl)c4)cc3oc2=O)cc1` has an IC50 (Beta-secretase 1) of 151 nM and an IC50 (Acetylcholinesterase) of 4230 nM.

For `CCN(Cc1ccccc1)Cc1ccc(-c2cc3cc(OCCNC(=O)/C=C/c4ccc(Cl)c(Cl)c4)ccc3oc2=O)cc1`, the IC50 (Beta-secretase 1) was 133 nM and the IC50 (Acetylcholinesterase) was 267000 nM.

With `CCN(Cc1ccccc1)Cc1ccc(-c2cc3ccc(OCCNC(=O)/C=C/c4cc(F)cc(F)c4)cc3oc2=O)cc1` the IC50 (Beta-secretase 1) was 121 nM and the IC50 (Acetylcholinesterase) was 4570 nM.

`CCN(Cc1ccccc1)Cc1ccc(-c2cc3ccc(OCCNC(=O)Cc4cc(F)cc(F)c4)cc3oc2=O)cc1` gave an IC50 (Beta-secretase 1) of 150 nM and an IC50 (Acetylcholinesterase) of 181 nM.
